Laboratory results taken from ChEMBL document CHEMBL6078698, “Discovery of 6-Fluoro-5-{4-[(5-fluoro-2-methyl-3-oxo-3,4-dihydroquinoxalin-6-yl)methyl]piperazin-1-yl}-N-methylpyridine-2-carboxamide (AZD9574): A CNS-Penetrant, PARP1-Selective Inhibitor” (J Med Chem, 2024).
Converted amounts (≈) assume the structure as drawn. Each block holds one molecule with its values, some of them ahead of it.

Tests used:
[1] = Intrinsic clearance in human liver microsomes; assay type: ADME, Microsome; settings: read-out: CLH
hERG (KCNH2) = hERG (KCNH2) (Homo sapiens, UniProt Q12809); assay: (§1) Inhibition of hERG transfected in CHO cells by electrophysiology; assay type: toxicity, cell-based; settings: human, CHO cells transfected with hERG
[2] = Solubility of compound at pH 7.4; assay type: physicochemical; settings: buffer
[3] = Inhibition of cell proliferation of human DLD-1 cells expressing BRCA2-/- incubated for 7 days by Sytox green dye based analysis; assay type: functional; settings: DLD-1, 168 h
[4] = Ratio of unbound drug concentration in brain to plasma of rat; assay type: ADME, cell-free; settings: brain and plasma (unbound), read-out: K(p,uu,brain)
MDR1 (P-gp), BCRP = assay: Efflux ratio in MDCK-MDR1-BCRP cells; assay type: ADME, cell-based, Canis lupus familiaris; settings: dog
[5] = Lipophilicity, log D of compound at pH 7.4; assay type: physicochemical; settings: buffer
[6] = target: Poly [ADP-ribose] polymerase 1 (Homo sapiens, UniProt P09874); assay: Inhibition of N-terminal 6His-tagged full-length recombinant human PARP1 by fluorescence anisotropy assay
[7] = target: Voltage-gated inwardly rectifying potassium channel KCNH2 (Homo sapiens, UniProt Q12809); assay: as §1; assay type: toxicity, cell-based
[8] = target: Poly [ADP-ribose] polymerase 2 (Homo sapiens, UniProt Q9UGN5); assay: Inhibition of N-terminal 6His-tagged full-length recombinant human PARP2 by fluorescence anisotropy assay
[9] = Unbound fraction in CD-1 mouse plasma at 1 mg/kg, po or 0.5 mg/kg, iv; assay type: ADME, organism-based; settings: in vivo
[10] = Toxicity in mouse xenografted with human DLD-1 cells expressing BRCA2-/- assessed as body weight reduction at 3 to 30 mg/kg administered once daily for 5 weeks; assay type: organism-based; settings: in vivo, 840 h, dose 3-30 mg/kg
[11] = Oral bioavailability […] in CD-1 mouse at 1 mg/kg; assay type: ADME, organism-based; settings: in vivo
[12] = Volume of distribution at steady state in Beagle dog at 1 mg/kg, po or 1 mg/kg, iv; assay type: ADME, organism-based, Canis lupus familiaris; settings: in vivo
[13] = Oral bioavailability in Han Wistar rat at 1 mg/kg; assay type: ADME, organism-based; settings: in vivo
[14] = Half life in Beagle dog at 1 mg/kg, po or 1 mg/kg, iv; assay type: ADME, organism-based, Canis lupus familiaris; settings: in vivo
[15] = Oral bioavailability in Beagle dog at 1 mg/kg; assay type: ADME, organism-based, Canis lupus familiaris; settings: in vivo
[16] = Unbound fraction in Beagle dog plasma at 1 mg/kg, po or 1 mg/kg, iv; assay type: ADME, organism-based, Canis lupus familiaris; settings: in vivo
[17] = Oral bioavailability in Cynomolgous monkey at 1 mg/kg; assay type: ADME, organism-based, Macaca fascicularis; settings: cynomolgus monkey, in vivo
[18] = Half life in Han Wistar rat at 1 mg/kg, po or 1 mg/kg, iv; assay type: ADME, organism-based; settings: in vivo
[19] = Toxicity in mouse xenografted with human DLD-1 cells expressing BRCA2-/- assessed as drug tolerance at 3 to 30 mg/kg administered once daily for 5 weeks; assay type: organism-based; settings: in vivo, 840 h, dose 3-30 mg/kg
[20] = Unbound fraction in Cynomolgous monkey plasma at 1 mg/kg, po or 0.5 mg/kg, iv; assay type: ADME, organism-based, Macaca fascicularis; settings: cynomolgus monkey, in vivo
DLD-1 [21] = assay: Antitumor activity against human DLD-1 cells expressing BRCA2-/- xenografted in mouse at 3 mg/kg administered once daily for 5 weeks relative to control; assay type: functional; settings: DLD-1, 840 h, read-out: TGI
DLD-1 [22] = assay: Antitumor activity against human DLD-1 cells expressing BRCA2-/- xenografted in mouse at 10 mg/kg administered once daily for 5 weeks relative to control; assay type: functional; settings: DLD-1, 840 h, read-out: TGI
[23] = Half life in Cynomolgous monkey at 1 mg/kg, po or 0.5 mg/kg, iv; assay type: ADME, organism-based, Macaca fascicularis; settings: cynomolgus monkey, in vivo
[24] = Unbound fraction in Han Wistar rat plasma at 1 mg/kg, po or 1 mg/kg, iv; assay type: ADME, organism-based; settings: in vivo
[25] = Half life in CD-1 mouse at 1 mg/kg, po or 0.5 mg/kg, iv; assay type: ADME, organism-based; settings: in vivo
[26] = Volume of distribution at steady state in CD-1 mouse at 1 mg/kg, po or 0.5 mg/kg, iv; assay type: ADME, organism-based; settings: in vivo
DLD-1 [27] = assay: Antitumor activity against human DLD-1 cells expressing BRCA2-/- xenografted in mouse at 30 mg/kg administered once daily for 5 weeks relative to control; assay type: functional; settings: DLD-1, 840 h, read-out: TGI
[28] = Volume of distribution at steady state in Han Wistar rat at 1 mg/kg, po or 1 mg/kg, iv; assay type: ADME, organism-based; settings: in vivo
[29] = Volume of distribution at steady state in Cynomolgous monkey at 1 mg/kg, po or 0.5 mg/kg, iv; assay type: ADME, organism-based, Macaca fascicularis; settings: cynomolgus monkey, in vivo
DLD-1 [30] = assay: Antitumor activity against human DLD-1 cells expressing BRCA2-/- xenografted in athymic nude Foxn1nu mouse at 100 mg/kg administered once daily for 28 days relative to control; assay type: functional; settings: DLD-1, 672 h, time 28 day, read-out: TGI

Sequence of Voltage-gated inwardly rectifying potassium channel KCNH2 (Q12809 whole entry): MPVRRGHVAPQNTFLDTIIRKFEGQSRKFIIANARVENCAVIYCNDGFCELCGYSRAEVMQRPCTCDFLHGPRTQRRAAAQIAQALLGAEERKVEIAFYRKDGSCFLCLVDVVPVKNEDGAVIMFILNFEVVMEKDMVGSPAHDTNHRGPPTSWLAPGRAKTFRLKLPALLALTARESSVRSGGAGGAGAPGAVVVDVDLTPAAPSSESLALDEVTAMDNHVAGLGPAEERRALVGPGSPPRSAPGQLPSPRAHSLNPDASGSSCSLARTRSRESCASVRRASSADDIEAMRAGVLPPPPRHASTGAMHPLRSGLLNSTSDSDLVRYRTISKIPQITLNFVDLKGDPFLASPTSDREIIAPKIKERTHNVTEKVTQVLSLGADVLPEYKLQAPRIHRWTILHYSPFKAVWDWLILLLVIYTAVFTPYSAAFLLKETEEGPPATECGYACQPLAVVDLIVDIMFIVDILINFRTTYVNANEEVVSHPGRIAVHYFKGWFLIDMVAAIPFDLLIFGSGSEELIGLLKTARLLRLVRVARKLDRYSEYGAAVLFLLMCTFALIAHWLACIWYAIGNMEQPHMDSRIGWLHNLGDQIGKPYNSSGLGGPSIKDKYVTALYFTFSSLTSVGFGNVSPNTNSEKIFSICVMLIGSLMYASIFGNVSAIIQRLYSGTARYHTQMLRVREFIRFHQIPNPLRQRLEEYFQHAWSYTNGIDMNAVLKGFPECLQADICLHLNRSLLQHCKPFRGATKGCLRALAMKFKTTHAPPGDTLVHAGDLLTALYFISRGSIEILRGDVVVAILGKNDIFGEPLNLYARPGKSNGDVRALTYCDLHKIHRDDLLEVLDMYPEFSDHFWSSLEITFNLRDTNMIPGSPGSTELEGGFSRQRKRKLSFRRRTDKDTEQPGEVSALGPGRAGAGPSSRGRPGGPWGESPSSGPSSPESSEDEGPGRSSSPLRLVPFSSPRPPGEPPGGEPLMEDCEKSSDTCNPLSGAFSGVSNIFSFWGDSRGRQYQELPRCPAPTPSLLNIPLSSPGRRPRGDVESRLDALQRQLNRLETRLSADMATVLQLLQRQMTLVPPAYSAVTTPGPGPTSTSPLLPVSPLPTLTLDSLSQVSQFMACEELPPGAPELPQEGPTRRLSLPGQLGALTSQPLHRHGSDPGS
Sequence of hERG (KCNH2) (Q12809 whole entry): as above
Sequence of Poly [ADP-ribose] polymerase 2 (Q9UGN5 whole entry): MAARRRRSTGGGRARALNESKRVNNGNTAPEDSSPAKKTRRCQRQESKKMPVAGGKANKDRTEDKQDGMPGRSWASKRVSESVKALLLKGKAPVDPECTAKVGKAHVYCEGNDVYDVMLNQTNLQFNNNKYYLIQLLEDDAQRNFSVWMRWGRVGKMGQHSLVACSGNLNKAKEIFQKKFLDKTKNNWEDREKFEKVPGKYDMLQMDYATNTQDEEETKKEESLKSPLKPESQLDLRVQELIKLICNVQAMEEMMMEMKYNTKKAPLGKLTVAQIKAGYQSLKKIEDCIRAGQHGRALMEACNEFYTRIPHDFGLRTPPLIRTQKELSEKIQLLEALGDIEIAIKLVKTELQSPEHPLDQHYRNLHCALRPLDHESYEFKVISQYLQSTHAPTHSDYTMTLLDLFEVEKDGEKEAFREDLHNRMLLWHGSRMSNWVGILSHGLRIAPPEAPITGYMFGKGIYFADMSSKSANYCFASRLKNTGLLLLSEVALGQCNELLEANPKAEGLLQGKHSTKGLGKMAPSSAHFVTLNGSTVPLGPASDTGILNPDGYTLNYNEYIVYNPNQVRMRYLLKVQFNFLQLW
Sequence of Poly [ADP-ribose] polymerase 1 (P09874 whole entry): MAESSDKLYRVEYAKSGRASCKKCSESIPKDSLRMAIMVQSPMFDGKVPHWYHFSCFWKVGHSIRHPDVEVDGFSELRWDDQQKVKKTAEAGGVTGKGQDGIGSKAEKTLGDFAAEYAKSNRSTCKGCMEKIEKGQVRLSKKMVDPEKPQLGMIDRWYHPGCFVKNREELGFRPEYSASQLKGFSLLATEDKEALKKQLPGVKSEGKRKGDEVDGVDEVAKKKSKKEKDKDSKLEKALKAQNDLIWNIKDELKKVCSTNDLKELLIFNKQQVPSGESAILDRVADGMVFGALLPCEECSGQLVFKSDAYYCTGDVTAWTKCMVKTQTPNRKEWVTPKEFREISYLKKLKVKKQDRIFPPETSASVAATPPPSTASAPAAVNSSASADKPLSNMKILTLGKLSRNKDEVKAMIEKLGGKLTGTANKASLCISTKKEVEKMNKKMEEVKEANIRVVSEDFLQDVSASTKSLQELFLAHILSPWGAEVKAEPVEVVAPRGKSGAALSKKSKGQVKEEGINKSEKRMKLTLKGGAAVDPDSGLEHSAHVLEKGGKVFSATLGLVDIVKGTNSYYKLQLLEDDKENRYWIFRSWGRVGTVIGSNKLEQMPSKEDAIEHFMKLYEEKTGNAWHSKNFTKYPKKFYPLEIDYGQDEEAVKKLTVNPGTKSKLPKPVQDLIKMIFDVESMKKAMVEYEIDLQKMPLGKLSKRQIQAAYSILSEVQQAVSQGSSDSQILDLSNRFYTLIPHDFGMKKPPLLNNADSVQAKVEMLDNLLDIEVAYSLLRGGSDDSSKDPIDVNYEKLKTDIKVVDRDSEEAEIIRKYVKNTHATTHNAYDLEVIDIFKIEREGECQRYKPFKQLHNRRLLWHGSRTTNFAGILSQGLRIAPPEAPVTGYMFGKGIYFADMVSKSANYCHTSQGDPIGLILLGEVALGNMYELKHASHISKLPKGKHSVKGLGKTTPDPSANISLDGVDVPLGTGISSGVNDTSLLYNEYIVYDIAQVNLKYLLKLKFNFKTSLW

- microsomal CLint [1]: < 3 µL/min/mg
- solubility [2]: 11 µM (≈ 4.67 µg/mL)
- Kp uu [4]: 0.19
- efflux ratio (MDR1 (P-gp), BCRP): 1.6
- logD [5]: 2.2
SMILES: CNC(=O)c1ccc(N2CCN(Cc3ccc4nc(C)c(=O)[nH]c4c3F)CC2)c(C)n1
- IC50 (hERG (KCNH2)): > 40000 nM
- IC50 [3]: 7 nM

- IC50 [6]: 9 nM
- microsomal CLint [1]: < 3 µL/min/mg
- IC50 [8]: 46000 nM
- solubility [2]: 9 µM (≈ 3.31 µg/mL)
- efflux ratio (MDR1 (P-gp), BCRP): 0.5
- logD [5]: 2.6
SMILES: CCc1nc2ccc(CN3CCN(c4ccc(F)nc4)CC3)cc2[nH]c1=O
- IC50 [7]: > 40000 nM
- IC50 [3]: 66 nM

- IC50 [6]: 8 nM
- microsomal CLint [1]: < 3 µL/min/mg
- IC50 [8]: 26000 nM
- solubility [2]: 26 µM (≈ 10.7 µg/mL)
- efflux ratio (MDR1 (P-gp), BCRP): 3.6
- logD [5]: 2.1
SMILES: CNC(=O)c1ccc(N2CCN(Cc3ccc4nc(C)c(=O)[nH]c4c3)CC2)c(F)n1

- IC50 [6]: 6 nM
- microsomal CLint [1]: 33 µL/min/mg
- IC50 [8]: 6300 nM
- solubility [2]: 3 µM (≈ 1.26 µg/mL)
- logD [5]: 3.3
SMILES: CCc1cc2ccc(CN3CCN(c4cnc(C(=O)NC)cc4C)CC3)cc2[nH]c1=O
- IC50 [7]: 8000 nM
- IC50 [3]: 1140 nM

- IC50 [6]: 4 nM
- microsomal CLint [1]: 17 µL/min/mg
- IC50 [8]: 690 nM
- solubility [2]: 1 µM (≈ 0.434 µg/mL)
- efflux ratio (MDR1 (P-gp), BCRP): 6.8
- logD [5]: 2
SMILES: CNC(=O)c1ccc(N2CCN(Cc3ccc4c5c(c(=O)[nH]c4c3)COCC5)CC2)cn1
- IC50 [7]: > 40000 nM

- Fu [9]: 20%
- bioavailability [11]: 116%
- microsomal CLint [1]: < 3 µL/min/mg
- Vdss [12]: 1.1 L/kg
- bioavailability [13]: 50%
- half-life [14]: 12 h
- bioavailability [15]: 91%
- Fu [16]: 25%
- solubility [2]: 19 µM (≈ 8.14 µg/mL)
- bioavailability [17]: 95%
- half-life [18]: 6.3 h
- Fu [20]: 16%
- half-life [23]: 10.5 h
- Fu [24]: 13%
- Kp uu [4]: 0.31
- half-life [25]: 4 h
- Vdss [26]: 2.7 L/kg
- logD [5]: 1.9
- Vdss [28]: 2.3 L/kg
- Vdss [29]: 1.7 L/kg
SMILES: CNC(=O)c1ccc(N2CCN(Cc3ccc4nc(C)c(=O)[nH]c4c3F)CC2)c(F)n1 [AZD-9574]
- Activity [10]: Toxic
- IC50 (hERG (KCNH2)): > 40000 nM
- Activity [19]: Non-toxic
- inhibition in vivo at 3 mg/kg (DLD-1 [21]): 43%
- inhibition in vivo at 10 mg/kg (DLD-1 [22]): 73%
- IC50 [3]: 16 nM
- inhibition in vivo at 30 mg/kg (DLD-1 [27]): 69%

- Kp uu [4]: < 0.1
SMILES: NC(=O)c1cccc2cn(-c3ccc([C@@H]4CCCNC4)cc3)nc12 [NIRAPARIB]
- IC50 [3]: 167 nM

- Kp uu [4]: < 0.1
SMILES: O=C(c1cc(Cc2n[nH]c(=O)c3ccccc23)ccc1F)N1CCN(C(=O)C2CC2)CC1 [OLAPARIB]
- inhibition in vivo at 100 mg/kg (DLD-1 [30]): 40%

- IC50 [8]: 6 nM
- Kp uu [4]: 0.1
SMILES: C[C@]12CCCN1CC1=NNC(=O)c3cc(F)cc4[nH]c2c1c34 [PAMIPARIB]
- IC50 [3]: 7 nM

- Kp uu [4]: < 0.1
SMILES: CNCc1ccc(-c2[nH]c3cc(F)cc4c3c2CCNC4=O)cc1 [RUCAPARIB]
- IC50 [3]: 39 nM

- microsomal CLint [1]: < 6 µL/min/mg
- Kp uu [4]: < 0.1
SMILES: CCc1cc2ncc(CN3CCN(c4ccc(C(=O)NC)nc4)CC3)cc2[nH]c1=O [SARUPARIB]
- IC50 (hERG (KCNH2)): > 40000 nM

- Kp uu [4]: < 0.1
SMILES: Cn1ncnc1[C@H]1c2n[nH]c(=O)c3cc(F)cc(c23)N[C@@H]1c1ccc(F)cc1 [TALAZOPARIB]

- Kp uu [4]: 0.19
SMILES: C[C@]1(c2nc3c(C(N)=O)cccc3[nH]2)CCCN1 [VELIPARIB]
- IC50 [3]: 1300 nM
